Legend:
[1] = target: DGKalpha (Homo sapiens, UniProt P23743); assay: In vitro DGK inhibition assay (ADP-Glo, liposomes), DGKalpha; assay type: biochemical; design: hDGKalpha(1-735)-N-His; His (N); made in house; host or cells: Sf21 insect cells (baculovirus); conditions: 4 nM DGK α, 25 μM ATP, 125 uM DLG in liposomes, 1 hour reaction
In short: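 Full-length human DGKα (4 nM) or DGKζ (2 nM) from Sf21 cells, with DLG substrate at 125 uM in PS/PC liposomes and ATP at 25 μM (α) or 50 μM (ζ); 1 h reaction. ADP formed read by ADP-Glo luminescence; compounds 11-point, 1:3 dilutions from 10 mM, 2% DMSO final.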

[2] = tested on: primary human T-cells; assay: T-cell proliferation assay (CellTiter-Glo); assay type: cell-based; conditions: Homo sapiens, T-cell, 120 h, CD3 condition; for Emax: 5 days, 20 μM reference compound A1 = 100%, read-out: Emax proliferation (% activation); for EC50: proliferation after 5 days, CellTiter-Glo, read-out: Tcell Proliferation CD3 EC50
In short: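 Expanded primary human T-cells (100k/well) on plates coated with CD3 antibody or PBS only, given a 5- or 6-point dose response (top 20 or 10 μM final, 3.333-fold steps, 0.2% DMSO). ATP measured by CellTiter-Glo 2.0 luminescence after 5 days. Normalized to DMSO and 20 μM reference A1 (100%); EC50 and Emax reported for CD3 conditions.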

[3] = target: DGKzeta (Homo sapiens, UniProt Q13574); assay: In vitro DGK inhibition assay (ADP-Glo, liposomes), DGKzeta; assay type: biochemical; design: hDGKzeta(1-928)-N-His; His (N); made in house; host or cells: Sf21 insect cells (baculovirus); conditions: 2 nM DGK ζ, 50 μM ATP, 125 uM DLG in liposomes, 1 hour reaction
DGKzeta, sequence (Q13574 whole entry): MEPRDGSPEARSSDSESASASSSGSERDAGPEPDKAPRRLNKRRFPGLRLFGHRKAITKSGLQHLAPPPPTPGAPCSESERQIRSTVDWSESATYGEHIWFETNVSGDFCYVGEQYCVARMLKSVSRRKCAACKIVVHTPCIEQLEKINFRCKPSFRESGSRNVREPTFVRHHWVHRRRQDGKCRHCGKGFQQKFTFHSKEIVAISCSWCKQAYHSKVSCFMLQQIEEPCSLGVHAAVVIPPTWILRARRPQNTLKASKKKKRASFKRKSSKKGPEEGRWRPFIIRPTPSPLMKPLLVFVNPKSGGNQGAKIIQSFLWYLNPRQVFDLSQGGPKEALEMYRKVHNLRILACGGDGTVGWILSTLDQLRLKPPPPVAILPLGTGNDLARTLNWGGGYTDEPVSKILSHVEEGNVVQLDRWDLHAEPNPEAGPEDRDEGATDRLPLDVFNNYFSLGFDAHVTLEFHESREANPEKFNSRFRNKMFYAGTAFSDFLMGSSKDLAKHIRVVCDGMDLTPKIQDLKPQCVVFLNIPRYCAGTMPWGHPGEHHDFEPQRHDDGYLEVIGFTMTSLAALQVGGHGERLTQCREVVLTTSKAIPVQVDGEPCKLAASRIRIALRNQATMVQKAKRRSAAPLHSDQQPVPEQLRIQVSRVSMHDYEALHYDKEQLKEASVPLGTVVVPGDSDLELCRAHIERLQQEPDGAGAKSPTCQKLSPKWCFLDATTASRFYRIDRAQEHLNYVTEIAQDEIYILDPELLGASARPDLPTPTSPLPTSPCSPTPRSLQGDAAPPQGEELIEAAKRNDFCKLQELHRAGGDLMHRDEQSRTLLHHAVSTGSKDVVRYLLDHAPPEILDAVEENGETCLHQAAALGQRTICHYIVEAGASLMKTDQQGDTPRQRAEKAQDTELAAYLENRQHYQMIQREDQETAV
In short: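 DGKζ (2 nM) phosphorylated DLG presented in DLG/PS/PC liposomes (final DLG 125 μM) with 50 μM ATP for 1 hour. ADP formed was read by ADP-Glo luminescence. Compounds were tested as 11-point 1:3 dose responses in 2% final DMSO.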

DGKalpha, sequence (P23743 whole entry): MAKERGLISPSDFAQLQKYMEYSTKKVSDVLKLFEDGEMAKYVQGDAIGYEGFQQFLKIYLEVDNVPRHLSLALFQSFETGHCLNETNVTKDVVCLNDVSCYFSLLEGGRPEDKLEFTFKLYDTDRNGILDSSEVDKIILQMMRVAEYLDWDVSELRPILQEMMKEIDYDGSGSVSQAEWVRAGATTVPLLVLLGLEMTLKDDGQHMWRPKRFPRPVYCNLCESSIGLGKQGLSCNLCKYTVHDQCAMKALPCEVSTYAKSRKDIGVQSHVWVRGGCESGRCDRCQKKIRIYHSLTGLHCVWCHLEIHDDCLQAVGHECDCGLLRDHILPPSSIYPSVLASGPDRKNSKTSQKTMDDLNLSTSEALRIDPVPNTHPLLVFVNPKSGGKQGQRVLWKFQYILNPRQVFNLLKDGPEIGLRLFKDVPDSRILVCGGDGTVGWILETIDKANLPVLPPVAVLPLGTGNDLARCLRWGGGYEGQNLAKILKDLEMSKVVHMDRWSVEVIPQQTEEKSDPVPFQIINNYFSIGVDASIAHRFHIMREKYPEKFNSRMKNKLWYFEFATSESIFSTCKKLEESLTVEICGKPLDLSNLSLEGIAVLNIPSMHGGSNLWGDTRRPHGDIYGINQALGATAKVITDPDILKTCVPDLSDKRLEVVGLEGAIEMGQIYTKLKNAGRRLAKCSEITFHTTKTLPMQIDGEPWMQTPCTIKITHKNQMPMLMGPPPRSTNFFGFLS

| SMILES | IC50 [1] | IC50 [3] | Emax [2] | EC50 [2] |
| --- | --- | --- | --- | --- |
| CC(C)(c1nc(-c2cc3c(cc2F)S(=O)(=O)C[C@H](N)C(=O)N3Cc2ccc(Oc3ccccc3)cc2)no1)S(C)(=O)=O [Example 30, (3R)-3-amino-8-fluoro-7-[5-(1-methyl-1-methylsulfonyl-ethyl)-1,2,4-oxadiazol-3-yl]-1,1-dioxo-5-[(4-phenoxyphenyl)methyl]-2,3-dihydro-1λ6,5-benzothiazepin-4-one] | 815 nM | 309 nM | 225% | 127 nM |
| Cc1cccc(Oc2ccc(CN3C(=O)[C@@H](N)CS(=O)(=O)c4ccc(-c5nnc(C(C)(C)S(C)(=O)=O)o5)cc43)cc2)c1 [Example 31] | 1780 nM | 455 nM | 106% | 599 nM |
| CC(C)(c1nnc(-c2ccc3c(c2)N(Cc2ccc(Oc4cccc(Cl)c4Cl)cc2)C(=O)[C@@H](N)CS3(=O)=O)o1)S(C)(=O)=O [Example 32, (3R)-3-amino-5-[[4-(2,3-dichlorophenoxy)phenyl]methyl]-7-[5-(1-methyl-1-methylsulfonyl-ethyl)-1,3,4-oxadiazol-2-yl]-1,1-dioxo-2,3-dihydro-1λ6,5-benzothiazepin-4-one] | 13400 nM | 893 nM | 75% | 356 nM |
| CC(C)(c1nnc(-c2ccc3c(c2)N(Cc2ccc(Oc4cccc(F)c4)cc2)C(=O)[C@@H](N)CS3(=O)=O)o1)S(C)(=O)=O [Example 33, (3R)-3-amino-5-[[4-(3-fluorophenoxy)phenyl]methyl]-7-[5-(1-methyl-1-methylsulfonyl-ethyl)-1,3,4-oxadiazol-2-yl]-1,1-dioxo-2,3-dihydro-1λ6,5-benzothiazepin-4-one] | 4750 nM | 539 nM | 82% | 645 nM |
| CC(C)(c1nnc(-c2ccc3c(c2)N(Cc2ccc(Oc4cccc(Cl)c4)cc2)C(=O)[C@@H](N)CS3(=O)=O)o1)S(C)(=O)=O [Example 34, (3R)-3-amino-5-[[4-(3-chlorophenoxy)phenyl]methyl]-7-[5-(1-methyl-1-methylsulfonyl-ethyl)-1,3,4-oxadiazol-2-yl]-1,1-dioxo-2,3-dihydro-1λ6,5-benzothiazepin-4-one] | 20300 nM | 1100 nM | 127% | 1270 nM |
| CC(C)(c1nnc(-c2cc3c(cc2F)S(=O)(=O)C[C@H](N)C(=O)N3Cc2ccc(-c3ccc(C(F)(F)F)cc3)cc2)o1)S(C)(=O)=O [Example 35, (3R)-3-amino-8-fluoro-7-[5-(1-methyl-1-methylsulfonyl-ethyl)-1,3,4-oxadiazol-2-yl]-1,1-dioxo-5-[[4-[4-(trifluoromethyl)phenyl]phenyl]methyl]-2,3-dihydro-1λ6,5-benzothiazepin-4-one] | 1220 nM | 649 nM | 164% | < 15 nM |
| CC(C)(c1nnc(-c2cc3c(cc2F)S(=O)(=O)C[C@H](N)C(=O)N3Cc2ccc(-c3ccc(C(F)(F)F)nc3)cc2)o1)S(C)(=O)=O [Example 36] | 1590 nM | 414 nM | 112% | 1680 nM |
| CC(C)(c1nnc(-c2ccc3c(c2)N(Cc2ccc(Oc4ccc(F)c(Cl)c4)cc2)C(=O)[C@@H](N)CS3(=O)=O)o1)S(C)(=O)=O [Example 37, (3R)-3-amino-5-[[4-(3-chloro-4-fluoro-phenoxy)phenyl]methyl]-7-[5-(1-methyl-1-methylsulfonyl-ethyl)-1,3,4-oxadiazol-2-yl]-1,1-dioxo-2,3-dihydro-1λ6,5-benzothiazepin-4-one] | 11100 nM | 414 nM | 115% | 1290 nM |
| CC(C)(c1nnc(-c2ccc3c(c2)N(Cc2ccc(Oc4cccc(C(F)(F)F)c4)cc2)C(=O)[C@@H](N)CS3(=O)=O)o1)S(C)(=O)=O [Example 38] | 3230 nM | 1280 nM | 130% | 623 nM |
| CC(C)(c1nnc(-c2ccc3c(c2)N(Cc2ccc(Oc4cc(F)cc(C(F)(F)F)c4)cc2)C(=O)[C@@H](N)CS3(=O)=O)o1)S(C)(=O)=O [Example 39] | 34900 nM | 2630 nM | 108% | 1330 nM |
| CC(C)(c1nnc(-c2ccc3c(c2)N(Cc2ccc(Oc4cccc(OC(F)(F)F)c4)cc2)C(=O)[C@@H](N)CS3(=O)=O)o1)S(C)(=O)=O [Example 40, (3R)-3-amino-7-[5-(1-methyl-1-methylsulfonyl-ethyl)-1,3,4-oxadiazol-2-yl]-1,1-dioxo-5-[[4-[3-(trifluoromethoxy)phenoxy]phenyl]methyl]-2,3-dihydro-126,5-benzothiazepin-4-one] | 1970 nM | 893 nM | 148% | 903 nM |
| COc1cc(Cl)cc(Oc2ccc(CN3C(=O)[C@@H](N)CS(=O)(=O)c4ccc(-c5nnc(C(C)(C)S(C)(=O)=O)o5)cc43)cc2)c1 [Example 41, (3R)-3-amino-5-[[4-(3-chloro-5-methoxy-phenoxy)phenyl]methyl]-7-[5-(1-methyl-1-methylsulfonyl-ethyl)-1,3,4-oxadiazol-2-yl]-1,1-dioxo-2,3-dihydro-1λ6,5-benzothiazepin-4-one] | 41000 nM | 2290 nM | 97% | 1710 nM |
| COc1cccc(Oc2ccc(CN3C(=O)[C@@H](N)CS(=O)(=O)c4ccc(-c5nnc(C(C)(C)S(C)(=O)=O)o5)cc43)cc2)c1 [Example 42] | 1160 nM | 413 nM | 205% | 674 nM |

Now from value to molecule, other results behind:

| IC50 [1] | IC50 [3] | SMILES | Emax [2] | EC50 [2] |
| --- | --- | --- | --- | --- |
| 640 nM | 192 nM | CC(C)(c1nc(-c2cc3c(cc2F)S(=O)(=O)C[C@H](N)C(=O)N3Cc2ccc(Cl)cc2)no1)S(C)(=O)=O [Example 43, (3R)-3-amino-5-[(4-chlorophenyl)methyl]-8-fluoro-7-[5-(1-methyl-1-methylsulfonyl-ethyl)-1,2,4-oxadiazol-3-yl]-1,1-dioxo-2,3-dihydro-1λ6,5-benzothiazepin-4-one] | 153% | 75 nM |
| 683 nM | 317 nM | CC(C)(c1nc(-c2cc3c(cc2F)S(=O)(=O)C[C@H](N)C(=O)N3Cc2ccc(OC(F)(F)F)cc2)no1)S(C)(=O)=O [Example 44, (3R)-3-amino-8-fluoro-7-[5-(1-methyl-1-methylsulfonyl-ethyl)-1,2,4-oxadiazol-3-yl]-1,1-dioxo-5-[[4-(trifluoromethoxy)phenyl]methyl]-2,3-dihydro-1λ6,5-benzothiazepin-4-one] | 251% | 208 nM |
| 818 nM | 98 nM | CC(C)(c1nc(-c2cc3c(cc2F)S(=O)(=O)C[C@H](N)C(=O)N3Cc2ccc(-c3noc(C4CC4)n3)cc2)no1)S(C)(=O)=O [Example 45, (3R)-3-amino-5-[[4-(5-cyclopropyl-1,2,4-oxadiazol-3-yl)phenyl]methyl]-8-fluoro-7-[5-(1-methyl-1-methylsulfonyl-ethyl)-1,2,4-oxadiazol-3-yl]-1,1-dioxo-2,3-dihydro-1λ6,5-benzothiazepin-4-one] | 260% | 235 nM |
| 1100 nM | 256 nM | CC(C)(c1nc(-c2cc3c(cc2F)S(=O)(=O)C[C@H](N)C(=O)N3Cc2ccc(-c3noc(C(F)(F)F)n3)cc2)no1)S(C)(=O)=O [Example 46, (3R)-3-amino-8-fluoro-7-[5-(1-methyl-1-methylsulfonyl-ethyl)-1,2,4-oxadiazol-3-yl]-1,1-dioxo-5-[[4-[5-(trifluoromethyl)-1,2,4-oxadiazol-3-yl]phenyl]methyl]-2,3-dihydro-1λ6,5-benzothiazepin-4-one] | 185% | 135 nM |
| 1100 nM | 468 nM | CC(C)(c1nnc(-c2ccc3c(c2)N(Cc2ccc(Oc4cccc(OC(F)F)c4)cc2)C(=O)[C@@H](N)CS3(=O)=O)o1)S(C)(=O)=O [Example 47, (3R)-3-amino-5-[[4-[3-(difluoromethoxy)phenoxy]phenyl]methyl]-7-[5-(1-methyl-1-methylsulfonyl-ethyl)-1,3,4-oxadiazol-2-yl]-1,1-dioxo-2,3-dihydro-1λ6,5-benzothiazepin-4-one] | 156% | 351 nM |
| 1960 nM | 630 nM | CC(C)(c1nc(-c2cc3c(cc2F)S(=O)(=O)C[C@H](N)C(=O)N3Cc2ccc(Oc3ccccc3)nc2)no1)S(C)(=O)=O [Example 48, (3R)-3-amino-8-fluoro-7-[5-(1-methyl-1l-methylsulfonyl-ethyl)-1,2,4-oxadiazol-3-yl]-1,1-dioxo-5-[(6-phenoxy-3-pyridyl)methyl]-2,3-dihydro-1 λ6,5-benzothiazepin-4-one] | 252% | 296 nM |
